Data as given in ChEMBL document CHEMBL1146675, “Kringle 5 peptide-albumin conjugates with anti-migratory activity” (Bioorg Med Chem Lett, 2004).
Peptide text beside a SMILES is read from it. * marks the point of attachment. Propanoyl(3-maleimido) = O=C1C=CC(=O)N1CCC(=O)*

species: Homo sapiens; test: Percent of unbound maleimide to human serum albumin; format: functional

Row | SMILES | Activity
1 | CC(C)C[C@H](NC(=O)[C@H](CCCCN)NC(=O)[C@H](CCCN=C(N)N)NC(=O)[C@@H]1CCCN1C(=O)[C@H](CC(N)=O)NC(=O)[C@@H](NC(=O)[C@@H](NC(=O)[C@H](Cc1ccc(O)cc1)NC(=O)[C@H](C)NC(=O)[C@H](Cc1c[nH]c2ccccc12)NC(=O)[C@@H]1CCCN1C(=O)CNC(=O)CNC(=O)[C@@H](NC(=O)[C@H](CC(=O)O)NC(=O)CNC(=O)[C@H](CC(=O)O)NC(=O)[C@@H]1CCCN1C(=O)[C@H](CC(N)=O)NC(=O)[C@H](CCCN=C(N)N)NC(=O)CCN1C(=O)C=CC1=O)C(C)C)[C@@H](C)O)[C@@H](C)O)C(=O)N[C@@H](Cc1ccc(O)cc1)C(=O)N[C@@H](CC(=O)O)C(=O)N[C@@H](Cc1ccc(O)cc1)C(N)=O ({Propanoyl(3-maleimido)}-RNPDGDVGGPWAYTTNPRKLYDY-NH2) | 1.6%
2 | CC(C)C[C@H](NC(=O)[C@H](CCCCN)NC(=O)[C@H](CCCN=C(N)N)NC(=O)[C@@H]1CCCN1C(=O)CCN1C(=O)C=CC1=O)C(=O)N[C@@H](Cc1ccc(O)cc1)C(=O)N[C@@H](CC(=O)O)C(=O)N[C@@H](Cc1ccc(O)cc1)C(N)=O ({Propanoyl(3-maleimido)}-PRKLYDY-NH2) | 1.1%
3 | CC(=O)N[C@@H](CCCN=C(N)N)C(=O)N[C@@H](CC(N)=O)C(=O)N1CCC[C@H]1C(=O)N[C@@H](CC(=O)O)C(=O)NCC(=O)N[C@@H](CC(=O)O)C(=O)N[C@H](C(=O)NCC(=O)NCC(=O)N1CCC[C@H]1C(=O)N[C@@H](Cc1c[nH]c2ccccc12)C(=O)N[C@@H](C)C(=O)N[C@@H](Cc1ccc(O)cc1)C(=O)N[C@H](C(=O)N[C@H](C(=O)N[C@@H](CC(N)=O)C(=O)N1CCC[C@H]1C(=O)N[C@@H](CCCN=C(N)N)C(=O)N[C@@H](CCCCN)C(=O)N[C@@H](CC(C)C)C(=O)N[C@@H](Cc1ccc(O)cc1)C(=O)N[C@@H](CC(=O)O)C(=O)N[C@@H](Cc1ccc(O)cc1)C(=O)N[C@@H](CCCCNC(=O)CCN1C(=O)C=CC1=O)C(N)=O)[C@@H](C)O)[C@@H](C)O)C(C)C (Ac-RNPDGDVGGPWAYTTNPRKLYDYK(Propanoyl(3-maleimido))-NH2) | 0.22%
